The target of the experiment is T1, His6-TEV-PPARγ-(234-505) (Homo sapiens, UniProt P37231).
T1 construct: The His6-TEV-PPARγ-(234-505) protein for assay was expressed and purified; TEV cleavage site (N); made in house
T1 sequence (P37231 234-505): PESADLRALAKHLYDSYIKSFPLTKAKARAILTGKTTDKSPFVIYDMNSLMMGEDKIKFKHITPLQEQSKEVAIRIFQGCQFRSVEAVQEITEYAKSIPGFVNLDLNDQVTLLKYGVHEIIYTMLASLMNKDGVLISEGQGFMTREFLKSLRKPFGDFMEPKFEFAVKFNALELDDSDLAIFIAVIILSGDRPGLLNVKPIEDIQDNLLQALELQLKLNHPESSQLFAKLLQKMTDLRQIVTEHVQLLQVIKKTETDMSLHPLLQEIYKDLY
The experiment is described as follows: TR-FRET Assay to Measure Co-R Peptide Recruitment to PPARγ. It is filed as biochemical. The conditions noted are these: Co-R peptide recruitment to PPARγ; read-out: TR-FRET AC50. As for the experimental part:
TR-FRET Assay to Measure Co—R Peptide Recruitment to PPARγ
The 2× detection solution contained anti-6×His-Terbium antibody (CisBio) and FITC labeled Co—R peptide (SMRT-ID2 from New England Peptide) at final concentrations of 5 and 200 nM respectively.
In these assay plates, the positive control in column 24 contained 500 nM (final) T0070907 and the negative control in column 23 contained an identical volume of DMSO. Then, 5 μL of 2+ protein working stock or controls were added to the plate and incubated for 20 minutes at room temperature. Reagents additions were performed with either a Combi (Thermo) or Mantis (Formulatory) pipetting device. The incubation was followed by addition of 5 μL of the 2× detection solution. Plates were covered, centrifuged, and incubated for an additional hour. The TR-FRET data was recorded with an Envision plate reader (Perkin Elmer), using settings recommended by Thermo Fisher. The TR-FRET signal of the positive and negative control's recruitment of FITC-Co—R peptide was used to normalize the TR-FRET signal to percent response and to determine the assay Z prime. Experiments were performed in triplicate and analyzed in GraphPad Prism 7.
Turning to `COc1cc(-c2cc(C(=O)N3CCC(C(=O)Nc4cc(C(F)(F)F)ccn4)CC3)n[nH]2)c(Cl)cn1` [1-[5-(5-chloro-2-methoxypyridin-4-yl)-1H-pyrazole-3-carbonyl]-N-[4-(trifluoromethyl)pyridin-2-yl]piperidine-4-carboxamide], the AC50 is over 1000 nM. As for `C[C@H](CNC(=O)C1CCN(C(=O)c2cc(-c3ccncc3)[nH]n2)CC1)c1ccccc1` [N-[(2S)-2-phenylpropyl]-1-[5-(pyridin-4-yl)-1H-pyrazole-3-carbonyl]piperidine-4-carboxamide], the AC50 was over 1000 nM. Under `COc1cc(-c2cc(C(=O)N3CCC(C(=O)N[C@H]4CC[C@@]5(CCO5)CC4)CC34CC4)n[nH]2)c(F)cn1` (single isomer, unassigned) stands over 1000 nM.

On to `O=C(NC1CCC(c2ccccc2)CC1)C1CCN(C(=O)c2cc(-c3cccnc3)[nH]n2)CC1` (stereo not drawn) [N-(4-phenylcyclohexyl)-1-[5-(pyridin-3-yl)-1H-pyrazole-3-carbonyl]piperidine-4-carboxamide], for which the AC50 was over 1000 nM. Under `COc1cccc(OC)c1CNC(=O)C1CCN(C(=O)c2cc(-c3ccncc3)[nH]n2)CC1` [N-[(2,6-dimethoxyphenyl)methyl]-1-[5-(pyridin-4-yl)-1H-pyrazole-3-carbonyl]piperidine-4-carboxamide] stands over 1000 nM; under `CC1CCC(NC(=O)C2CCN(C(=O)c3cc(-c4ccnc(C(=O)O)c4)[nH]n3)CC2)CC1` (stereo not drawn), over 1000 nM; under `COc1cc(-c2cc(C(=O)N3CCC(C(=O)NCc4ccn(C)n4)CC3)n[nH]2)c(Cl)cn1` [1-[5-(5-chloro-2-methoxypyridin-4-yl)-1H-pyrazole-3-carbonyl]-N-[(1-methyl-1H-pyrazol-3-yl)methyl]piperidine-4-carboxamide], over 1000 nM. Under `CC1CCC(NC(=O)C2CCN(C(=O)c3cc(-c4ccnc(C5CC5)c4)[nH]n3)CC2)CC1` (stereo not drawn) [1-[5-(2-cyclopropylpyridin-4-yl)-1H-pyrazole-3-carbonyl]-N-(4-methylcyclohexyl)piperidine-4-carboxamide] stands over 1000 nM; under `CCC1CCC(NC(=O)C2CCN(C(=O)c3cc(-c4ccncc4)[nH]n3)CC2)CC1` (stereo not drawn), over 1000 nM. Consider `O=C(N[C@@H]1CCN(Cc2ccccc2)C1)C1CCN(C(=O)c2cc(-c3cccnc3)[nH]n2)CC1` [N-[(3R)-1-benzylpyrrolidin-3-yl]-1-[5-(pyridin-3-yl)-1H-pyrazole-3-carbonyl]piperidine-4-carboxamide], for which the AC50 was over 1000 nM. The same measure for `O=C(Nc1ccccc1)C1CCN(C(=O)c2cc(-c3ccncc3)[nH]n2)CC1` [N-phenyl-1-[5-(pyridin-4-yl)-1H-pyrazole-3-carbonyl]piperidine-4-carboxamide]: over 1000 nM; for `CN1CCC(N(C)C(=O)C2CCN(C(=O)c3cc(-c4ccncc4)[nH]n3)CC2)CC1` [N-methyl-N-(1-methylpiperidin-4-yl)-1-[5-(pyridin-4-yl)-1H-pyrazole-3-carbonyl]piperidine-4-carboxamide]: over 1000 nM; for `COc1cc(-c2cc(C(=O)N3CCC(C(=O)NC4(c5cccc(Cl)c5)CC4)CC3)n[nH]2)c(Cl)cn1` [1-[5-(5-chloro-2-methoxypyridin-4-yl)-1H-pyrazole-3-carbonyl]-N-[1-(3-chlorophenyl)cyclopropyl]piperidine-4-carboxamide]: over 1000 nM.

With `COc1cc(-c2cc(C(=O)N3CCC(C(=O)NCC4CCCCO4)CC3)n[nH]2)c(Cl)cn1` (stereo not drawn) [1-[5-(5-chloro-2-methoxypyridin-4-yl)-1H-pyrazole-3-carbonyl]-N-[(oxan-2-yl)methyl]piperidine-4-carboxamide], the AC50 is over 1000 nM. Under `COc1cc(-c2cc(C(=O)N3CCC(C(=O)NCC4COCCO4)CC3)n[nH]2)c(Cl)cn1` (stereo not drawn) [1-[5-(5-chloro-2-methoxypyridin-4-yl)-1H-pyrazole-3-carbonyl]-N-[(1,4-dioxan-2-yl)methyl]piperidine-4-carboxamide] stands over 1000 nM. The same measure for `C[C@H]1CC[C@@H](NC(=O)C2CCN(C(=O)c3cc(-c4ccncc4)[nH]n3)CC2)CC1`: over 1000 nM; for `COc1ccccc1CNC(=O)C1CCN(C(=O)c2cc(-c3ccncc3)[nH]n2)CC1` [N-[(2-methoxyphenyl)methyl]-1-[5-(pyridin-4-yl)-1H-pyrazole-3-carbonyl]piperidine-4-carboxamide]: over 1000 nM. The same measure for `COc1cc(-c2cc(C(=O)N3CCC(C(=O)NCc4cn5ccnc5cn4)CC3)n[nH]2)c(Cl)cn1` [1-[5-(5-chloro-2-methoxypyridin-4-yl)-1H-pyrazole-3-carbonyl]-N-({imidazo[1,2-a]pyrazin-6-yl}methyl)piperidine-4-carboxamide]: over 1000 nM; for `COc1cc(-c2cc(C(=O)N3CCC(C(=O)NCc4cc(C#N)ccn4)CC3)n[nH]2)c(Cl)cn1` [1-[5-(5-chloro-2-methoxypyridin-4-yl)-1H-pyrazole-3-carbonyl]-N-[(4-cyanopyridin-2-yl)methyl]piperidine-4-carboxamide]: over 1000 nM. As for `COc1cc(-c2cc(C(=O)N3CCC(C(=O)NCc4ccc(C#N)nc4)CC3)n[nH]2)c(Cl)cn1` [1-[5-(5-chloro-2-methoxypyridin-4-yl)-1H-pyrazole-3-carbonyl]-N-[(6-cyanopyridin-3-yl)methyl]piperidine-4-carboxamide], the AC50 is over 1000 nM. Under `COc1cc(-c2cc(C(=O)N3C[C@H]4C[C@@H]3CC4C(=O)N[C@H]3CC[C@@](O)(C(F)(F)F)CC3)n[nH]2)c(F)cn1` (single isomer, unassigned) stands over 1000 nM; under `CC1CCC(NC(=O)C2CCN(C(=O)c3cc(-c4ccnc(C(F)(F)F)c4)[nH]n3)CC2)CC1` (stereo not drawn) [N-(4-methylcyclohexyl)-1-{5-[2-(trifluoromethyl)pyridin-4-yl]-1H-pyrazole-3-carbonyl}piperidine-4-carboxamide], over 1000 nM. Under `Cc1csc(CNC(=O)C2CCN(C(=O)c3cc(-c4ccncc4)[nH]n3)CC2)c1` [N-[(4-methylthiophen-2-yl)methyl]-1-[5-(pyridin-4-yl)-1H-pyrazole-3-carbonyl]piperidine-4-carboxamide] stands over 1000 nM.

Consider `C[C@@H](NC(=O)C1CCN(C(=O)c2cc(-c3ccncc3)[nH]n2)CC1)c1ccccc1` [N-[(1R)-1-phenylethyl]-1-[5-(pyridin-4-yl)-1H-pyrazole-3-carbonyl]piperidine-4-carboxamide], for which the AC50 was over 1000 nM. The same measure for `COc1cc(-c2cc(C(=O)N3CCC(C(=O)Nc4cnc5ccccn45)CC3)n[nH]2)c(Cl)cn1` [1-[5-(5-chloro-2-methoxypyridin-4-yl)-1H-pyrazole-3-carbonyl]-N-{imidazo[1,2-a]pyridin-3-yl}piperidine-4-carboxamide]: over 1000 nM. The same measure for `Cc1ccc(NC(=O)C2CCN(C(=O)c3cc(-c4ccncc4)[nH]n3)CC2)cc1` [N-(4-methylphenyl)-1-[5-(pyridin-4-yl)-1H-pyrazole-3-carbonyl]piperidine-4-carboxamide]: over 1000 nM. The same measure for `COc1cc(-c2cc(C(=O)N3CCC(C#N)(C(=O)NCc4cccc(Cl)c4)CC3)n[nH]2)c(Cl)cn1` [1-[5-(5-chloro-2-methoxypyridin-4-yl)-1H-pyrazole-3-carbonyl]-N-[(3-chlorophenyl)methyl]-4-cyanopiperidine-4-carboxamide]: over 1000 nM.
